The values that follow are results of earlier work, collected in patent US8846084B2, “Controlled release compositions containing zolpidem” (Wockhardt Ltd, priority 2005, dated 2014).

This data set deals with T1, (BZ)1 receptor (Homo sapiens, UniProt P14867+P18507).
T1 sequence (P14867 28-456): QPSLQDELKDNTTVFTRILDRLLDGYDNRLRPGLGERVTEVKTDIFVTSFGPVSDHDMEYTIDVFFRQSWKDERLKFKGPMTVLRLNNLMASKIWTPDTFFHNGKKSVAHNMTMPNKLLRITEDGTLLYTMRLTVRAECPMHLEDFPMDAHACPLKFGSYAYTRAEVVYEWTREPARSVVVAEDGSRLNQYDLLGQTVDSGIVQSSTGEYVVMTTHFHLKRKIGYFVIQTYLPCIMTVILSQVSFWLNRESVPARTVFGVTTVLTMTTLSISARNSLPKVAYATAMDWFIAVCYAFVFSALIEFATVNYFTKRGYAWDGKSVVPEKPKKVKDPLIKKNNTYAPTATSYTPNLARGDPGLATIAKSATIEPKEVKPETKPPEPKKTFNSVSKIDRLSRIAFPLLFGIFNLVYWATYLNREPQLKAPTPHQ
T1 sequence (P18507 40-467 limits assumed): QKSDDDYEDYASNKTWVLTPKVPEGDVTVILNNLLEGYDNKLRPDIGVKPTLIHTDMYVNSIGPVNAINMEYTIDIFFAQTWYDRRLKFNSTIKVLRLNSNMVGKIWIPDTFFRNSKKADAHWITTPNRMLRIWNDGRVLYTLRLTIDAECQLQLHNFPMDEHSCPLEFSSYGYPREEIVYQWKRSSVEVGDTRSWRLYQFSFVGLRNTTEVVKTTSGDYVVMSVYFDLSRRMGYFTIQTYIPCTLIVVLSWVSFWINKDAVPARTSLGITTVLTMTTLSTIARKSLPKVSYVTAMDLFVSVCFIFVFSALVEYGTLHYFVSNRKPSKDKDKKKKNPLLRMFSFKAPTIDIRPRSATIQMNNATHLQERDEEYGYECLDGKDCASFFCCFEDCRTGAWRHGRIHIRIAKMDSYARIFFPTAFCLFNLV
T1 sequence (P47870 25-512 partner limits assumed): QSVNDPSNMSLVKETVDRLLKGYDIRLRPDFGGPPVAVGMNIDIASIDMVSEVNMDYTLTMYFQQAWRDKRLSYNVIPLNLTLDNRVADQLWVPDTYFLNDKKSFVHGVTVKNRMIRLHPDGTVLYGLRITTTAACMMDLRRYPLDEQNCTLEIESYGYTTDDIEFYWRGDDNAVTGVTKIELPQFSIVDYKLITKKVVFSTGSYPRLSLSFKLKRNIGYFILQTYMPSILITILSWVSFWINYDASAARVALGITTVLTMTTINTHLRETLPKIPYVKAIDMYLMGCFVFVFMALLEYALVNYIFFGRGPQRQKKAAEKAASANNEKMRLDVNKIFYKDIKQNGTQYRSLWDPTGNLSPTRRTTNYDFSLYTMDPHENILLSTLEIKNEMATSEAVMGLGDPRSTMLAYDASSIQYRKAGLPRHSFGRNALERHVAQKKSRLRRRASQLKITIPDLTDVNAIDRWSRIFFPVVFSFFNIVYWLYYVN
The note with it: in vitro; affinity ratio of the α1-subunits/α5-subunits.

Consider `Cc1ccc(-c2nc3ccc(C)cn3c2CC(=O)N(C)C)cc1` [zolpidem, N,N,6-trimethyl-2-p-tolylimidazo[1,2-a]pyridine-3-acetamide], for which the “receptor subtype binding preference” value is given as “binds the (BZ)1 receptor preferentially with a high affinity ratio”.
